In PubChem BioAssay AID1745844 (Carcinogenic Potency Database (CPDB), 2022):
Where “and” joins values, the source holds several entries; their conditions need not be identical. Equal values may be shown once. Calls of active or inactive are those of the source. The rule behind the calls is not given here.

System: rodent lifetime carcinogenesis bioassay, tumor incidence TD50
Experiment: carcinogenic potency in animals, long-term in vivo studies, CPDB compilation (AID 1745844)
Conditions: rat

For ClCCl, the carcinogen call (strain Fischer 344, females, in drinking water, site: liver, lesion: hepatocellular carcinoma, dosed 78 weeks, study length 104 weeks) was “negative (inactive)”, the TD50 (strain Fischer 344, females, in drinking water, site: liver, lesion: hepatocellular carcinoma, dosed 104 weeks, study length 104 weeks) was 3630 mg/kg/day (inactive) and the carcinogen call (strain Fischer 344, females, in drinking water, site: liver, lesion: neoplastic nodule, dosed 78 weeks, study length 78 weeks) was “negative (inactive)”. For the same molecule, the TD50 (strain Fischer 344, females, in drinking water, site: liver, lesion: neoplastic nodule, dosed 78 weeks, study length 104 weeks) was 1540 mg/kg/day (inactive), the TD50 (strain Fischer 344, females, in drinking water, site: liver, lesion: neoplastic nodule, dosed 104 weeks, study length 104 weeks) was 2340 mg/kg/day (inactive) and the TD50 (strain Fischer 344, females, in drinking water, site: liver, lesion: several types, types named in the paper, dosed 78 weeks, study length 104 weeks) was 1540 mg/kg/day (inactive). The TD50 (strain Fischer 344, females, in drinking water, site: liver, lesion: several types, types named in the paper, dosed 104 weeks, study length 104 weeks) was 1430 mg/kg/day (inactive), the TD50 (strain Fischer 344, females, inhaled, site: all sites, lesion: mononuclear-cell leukemia, dosed 102 weeks, study length 104 weeks) was 1280 mg/kg/day and the TD50 (strain Fischer 344, females, inhaled, site: any site (literature study), lesion: several types, types named in the paper, dosed 102 weeks, study length 104 weeks) was 501 mg/kg/day. For the same molecule, the TD50 (strain Fischer 344, females, inhaled, site: liver, lesion: hepatocellular adenoma + hepatocellular carcinoma + neoplastic nodule, dosed 102 weeks, study length 104 weeks) was 4270 mg/kg/day, the TD50 (strain Fischer 344, females, inhaled, site: liver, lesion: hepatocellular carcinoma + neoplastic nodule, dosed 102 weeks, study length 104 weeks) was 4270 mg/kg/day and the TD50 (strain Fischer 344, females, inhaled, site: mammary gland, lesion: adenocarcinoma, NOS + adenoma, NOS + fibroadenoma + mixed tumor, malignant, dosed 102 weeks, study length 104 weeks) was 670 mg/kg/day. The TD50 (strain Fischer 344, females, inhaled, site: mammary gland, lesion: adenocarcinoma, NOS + adenoma, NOS + fibroadenoma, dosed 102 weeks, study length 104 weeks) was 630 mg/kg/day, the TD50 (strain Fischer 344, females, inhaled, site: mammary gland, lesion: adenoma, NOS + fibroadenoma, dosed 102 weeks, study length 104 weeks) was 598 mg/kg/day and the TD50 (strain Fischer 344, females, inhaled, site: mammary gland, lesion: fibroadenoma, dosed 102 weeks, study length 104 weeks) was 632 mg/kg/day. For the same molecule, the carcinogen call (strain Fischer 344, males, in drinking water, site: liver, lesion: hepatocellular carcinoma, dosed 78 weeks, study length 104 weeks) was “negative (inactive)”, the carcinogen call (strain Fischer 344, males, in drinking water, site: liver, lesion: hepatocellular carcinoma, dosed 104 weeks, study length 104 weeks) was “negative (inactive)” and the carcinogen call (strain Fischer 344, males, in drinking water, site: liver, lesion: neoplastic nodule, dosed 78 weeks, study length 78 weeks) was “negative (inactive)”. The TD50 (strain Fischer 344, males, in drinking water, site: liver, lesion: neoplastic nodule, dosed 78 weeks, study length 104 weeks) was 1610 mg/kg/day (inactive), the carcinogen call (strain Fischer 344, males, in drinking water, site: liver, lesion: neoplastic nodule, dosed 104 weeks, study length 104 weeks) was “negative (inactive)” and the TD50 (strain Fischer 344, males, in drinking water, site: liver, lesion: several types, types named in the paper, dosed 78 weeks, study length 104 weeks) was 3660 mg/kg/day (inactive). For the same molecule, the carcinogen call (strain Fischer 344, males, in drinking water, site: liver, lesion: several types, types named in the paper, dosed 104 weeks, study length 104 weeks) was “negative (inactive)”, the TD50 (strain Fischer 344, males, inhaled, site: any site (literature study), lesion: several types, types named in the paper, dosed 102 weeks, study length 104 weeks) was 539 mg/kg/day and the TD50 (strain Fischer 344, males, inhaled, site: mammary gland + subcutaneous tissue, lesion: adenoma, NOS + fibroadenoma + fibroma, dosed 102 weeks, study length 104 weeks) was 917 mg/kg/day. For the same molecule, the TD50 (strain Fischer 344, males, inhaled, site: mammary gland, lesion: adenoma, NOS + fibroadenoma, dosed 102 weeks, study length 104 weeks) was 1640 mg/kg/day, the TD50 (strain Fischer 344, males, inhaled, site: mammary gland, lesion: fibroadenoma, dosed 102 weeks, study length 104 weeks) was 1770 mg/kg/day and the TD50 (strain Fischer 344, males, inhaled, site: multiple organs + tunica vaginalis, lesion: mesothelioma, NOS + mesothelioma, malignant, dosed 102 weeks, study length 104 weeks) was 1440 mg/kg/day. It also gave a TD50 (strain Fischer 344, males, inhaled, site: subcutaneous tissue, lesion: fibroma + sarcoma, NOS, dosed 102 weeks, study length 104 weeks) of 1990 mg/kg/day, a TD50 (strain Fischer 344, males, inhaled, site: subcutaneous tissue, lesion: fibroma, dosed 102 weeks, study length 104 weeks) of 2180 mg/kg/day and a TD50 (strain Fischer 344, males, inhaled, site: tunica vaginalis, lesion: mesothelioma, NOS + mesothelioma, malignant, dosed 102 weeks, study length 104 weeks) of 1640 mg/kg/day. The TD50 (strain Fischer 344, males, inhaled, site: tunica vaginalis, lesion: mesothelioma, malignant, dosed 102 weeks, study length 104 weeks) was 4310 mg/kg/day, the TD50 (strain Sprague-Dawley Spartan, females, inhaled, site: liver, lesion: Kupffer-cell sarcoma, dosed 104 weeks, study length 104 weeks) was 9340 mg/kg/day (inactive) and the carcinogen call (strain Sprague-Dawley Spartan, females, inhaled, site: liver, lesion: hepatocellular carcinoma, dosed 52 weeks, study length 104 weeks) was “negative (inactive)”. The TD50 (strain Sprague-Dawley Spartan, females, inhaled, site: liver, lesion: hepatocellular carcinoma, dosed 104 weeks, study length 104 weeks) was 9520 mg/kg/day (inactive), the carcinogen call (strain Sprague-Dawley Spartan, females, inhaled, site: liver, lesion: neoplastic nodule, dosed 52 weeks, study length 104 weeks) was “negative (inactive)” and the carcinogen call (strain Sprague-Dawley Spartan, females, inhaled, site: liver, lesion: neoplastic nodule, dosed 104 weeks, study length 104 weeks) was “negative (inactive)”. For the same molecule, the TD50 (strain Sprague-Dawley Spartan, females, inhaled, site: mammary gland, lesion: adenocarcinoma, dosed 52 weeks, study length 104 weeks) was 1140 mg/kg/day (inactive), the carcinogen call (strain Sprague-Dawley Spartan, females, inhaled, site: mammary gland, lesion: adenocarcinoma, dosed 104 weeks, study length 104 weeks) was “negative (inactive)” and the TD50 (strain Sprague-Dawley Spartan, females, inhaled, site: mammary gland, lesion: benign tumor, dosed 52 weeks, study length 104 weeks) was 38.1 mg/kg/day. The TD50 (strain Sprague-Dawley Spartan, females, inhaled, site: mammary gland, lesion: benign tumor, dosed 104 weeks, study length 104 weeks) was 4430 mg/kg/day and 1550 mg/kg/day, the TD50 (strain Sprague-Dawley Spartan, females, inhaled, site: mammary gland, lesion: fibroadenoma, dosed 52 weeks, study length 104 weeks) was 37.7 mg/kg/day and the TD50 (strain Sprague-Dawley Spartan, females, inhaled, site: mammary gland, lesion: fibroadenoma, dosed 104 weeks, study length 104 weeks) was 631 mg/kg/day. The carcinogen call (strain Sprague-Dawley Spartan, males, inhaled, site: liver, lesion: one or several types, types not named, dosed 86 weeks, study length 86 weeks) was “negative (inactive)”, the TD50 (strain Sprague-Dawley Spartan, males, inhaled, site: mammary gland, lesion: benign tumor, dosed 104 weeks, study length 104 weeks) was 5080 mg/kg/day and the TD50 (strain Sprague-Dawley Spartan, males, inhaled, site: salivary gland, lesion: several types, types named in the paper, dosed 104 weeks, study length 104 weeks) was 4260 mg/kg/day. It also gave a TD50 (strain Sprague-Dawley, females, by gavage, site: any site (literature study), lesion: malignant tumor, dosed 64 weeks, study length 104 weeks) of 1740 mg/kg/day, a TD50 (strain Sprague-Dawley, females, by gavage, site: mammary tissue, wider than the gland, lesion: malignant tumor, dosed 64 weeks, study length 104 weeks) of 1130 mg/kg/day and a TD50 (strain Sprague-Dawley, females, by gavage, site: mammary tissue, wider than the gland, lesion: several types, types named in the paper, dosed 64 weeks, study length 104 weeks) of 1030 mg/kg/day. For the same molecule, the TD50 (strain Sprague-Dawley, females, inhaled, site: any site (literature study), lesion: malignant tumor, dosed 104 weeks, study length 104 weeks) was 477 mg/kg/day, the TD50 (strain Sprague-Dawley, females, inhaled, site: any site (literature study), lesion: several types, types named in the paper, dosed 104 weeks, study length 104 weeks) was 32.1 mg/kg/day and the TD50 (strain Sprague-Dawley, females, inhaled, site: mammary tissue, wider than the gland, lesion: several types, types named in the paper, dosed 104 weeks, study length 104 weeks) was 37.8 mg/kg/day. For the same molecule, the TD50 (strain Sprague-Dawley, males, by gavage, site: any site (literature study), lesion: malignant tumor, dosed 64 weeks, study length 104 weeks) was 935 mg/kg/day.
